These results are taken from publication PMC9975698, “Hyperoside alleviates toxicity of β-amyloid via endoplasmic reticulum-mitochondrial calcium signal transduction cascade in APP/PS1 double transgenic Alzheimer's disease mice” (Redox Biology, 2023).

The target of this test is T1, β-secretase (Mus musculus, UniProt P56818).
T1 construct: 50 μL supernatant (cell lysate) was transferred to each well in the 96-well plate; endogenous in cells; host or cells: HT22 cells
Nature of the test: BACE-1 inhibition assay (β-secretase activity in HT22 cell lysate). The format is cell-based. To be noted: HT22 cells, HYP 20–80 μM, 24 h. As for the experimental part:
The assay was performed in a 96-well flat-bottom white plate using β-Secretase Activity Fluorometric Assay Kit (Biovision, CA, USA). To begin, HT22 cells were treated with HYP (20–80 μM) for 24 h and then collected by centrifugation with ice-cold extraction buffer added for homogenization. After centrifugation, 50 μL supernatant (cell lysate) was transferred to each well in the 96-well plate. 2 μL of active β-secretase (protein concentration: 4 μg/μL) was added to the 50 μL of extraction buffer as the positive control. For negative control, 2 μL of the β-secretase inhibitor was added to the 50 μL of sample well. 2 μL of each of the tested samples were added into each sample well for inhibitory activity evaluation. Following compounds addition, 50 μL of 2X reaction buffer was added with a gentle mix and incubation for 20 min at 37 °C before adding 2 μL of the β-secretase substrate. The plate was then covered and incubated in the dark at 37 °C for 1 h. Samples were then measured in a fluorescent 96-well plate reader (Ex/Em = 345/500 nm). Background readings produced from the substrate without adding secretase were subtracted from all samples.

Structures are written as SMILES.

T1 sequence (P56818 46-501): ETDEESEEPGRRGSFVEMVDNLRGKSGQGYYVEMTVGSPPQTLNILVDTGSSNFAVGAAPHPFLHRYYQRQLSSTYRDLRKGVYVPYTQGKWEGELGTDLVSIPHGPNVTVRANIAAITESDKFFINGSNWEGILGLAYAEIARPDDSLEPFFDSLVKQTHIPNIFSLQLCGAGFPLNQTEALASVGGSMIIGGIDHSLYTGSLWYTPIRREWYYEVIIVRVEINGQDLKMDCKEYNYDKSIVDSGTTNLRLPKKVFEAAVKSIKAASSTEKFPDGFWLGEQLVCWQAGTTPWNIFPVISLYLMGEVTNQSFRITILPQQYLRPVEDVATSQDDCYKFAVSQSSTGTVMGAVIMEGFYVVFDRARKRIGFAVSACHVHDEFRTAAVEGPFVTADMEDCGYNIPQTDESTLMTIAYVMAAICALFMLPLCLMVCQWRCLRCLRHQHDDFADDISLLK

With `O=c1c(O[C@@H]2O[C@H](CO)[C@H](O)[C@H](O)[C@H]2O)c(-c2ccc(O)c(O)c2)oc2cc(O)cc(O)c12` [HYP, Quercetin-3-O-β-D-galactopyranoside], the β-secretase activity entry was “inhibited β-secretase activity”.
